What was measured:
UM-SCC-22A cells [1] = experiment: Growth inhibition in culture, IC50 determination by MTT assay; assay type: cell-based; settings: UM-SCC-22A (HPV−) cells, 48 h; read-out: IC50 (concentration that inhibited growth by 50%)
Experimental: (§1) IC50 determination by MTT assay. Cells were plated in 96-well plates and allowed to adhere for 20 h, then treated with the indicated concentrations of drug. After 48 h treatment, the MTT assay (ATCC) was performed as described previously (Sentelle et al, 2012).

UM-SCC-47 cells [2] = experiment: as above; assay type: cell-based
Experimental: as §1

UM-SCC-47 cells [3] = experiment: Mitophagy in UM-SCC-47 cells (Sea Horse oxygen consumption rate, TEM); assay type: cell-based
Experimental: Measurement of cellular respiration using Seahorse XF analyzer. Cells were plated in a Seahorse Biosciences 96-well plate and allowed to adhere for 20 hours. They were then treated with 20 uM C18-pyr-cer or equivalent amount of vehicle (EtOH) for two hours, then oxygen consumption rate was measured using a Seahorse XF96 (Seahorse Biosciences) as described by the manufacturer (Sentelle et al, 2012).
Ultra-structure analysis using transmission electron microscopy.

Drp1 [4] = experiment: Drp1 oligomerization by Western blotting without reducing agents; assay type: cell-based; settings: HPV(+) UM-SCC47 cells
Experimental: FIGS. 7A-F. E2F5/Drp1 complex enhances HPV-E7/ceramide-dependent lethal mitophagy. (A) UM-SCC47 cells were treated with cisplatin or C18-pyr-cer and Western blotting was performed with cell lysates in the absence of reducing agents in the lysing buffer to detect monomeric and dimeric Drp1 protein abundance compared to vehicle-treated controls. Actin was used as a loading control. (B-C) Cell death was assessed by trypan blue exclusion assay in UM-SCC47 cells expressing dominant-negative Drp1 mutant (K38A-DRP1) and treated with C18-pyr-cer (B) or cisplatin (C) compared to vector-transfected controls. […] (D-E) Association between E2F5 and Drp1 in response to ceramide stress (C18-pyr-cer) was measured in UM-SCC-47 cells using PLA (D) or immunoprecipitation followed by Western blotting (E) with anti-Drp1 or anti-E2F5 antibodies. IgG was used as a control. […] PLA signals were quantified as described by the manufacturer using the PLA quantification software. […] Effects of siRNA-mediated HPV-E6/E7 knockdown on pRB, HPV-E7 and p53 protein abundance were also confirmed by Western blotting compared to Scr-siRNA-transfected controls in the absence/presence of C18-pyr-cer (right panel). Total RB was used a loading control (Rb band, upper panel).
Immunoblotting. Cells were lysed in RIPA buffer plus protease inhibitor cocktail on ice for 15 minutes then centrifuged. […]

Drp1-E2F5 complex [5] = experiment: Drp1-E2F5 association in UM-SCC-47 cells (PLA, co-immunoprecipitation); assay type: cell-based
Experimental: (§2) Proximity ligation assay. Proximity ligation assays were performed using Duolink in situ red kit (Sigma) per manufacturer's instructions, then analyzed as described (Panneer-Selvam et al, 2015).
Co-immunoprecipitation. Cells were lysed in 500 ul Pierce™ IP lysis/wash buffer (ThermoFisher) with protease inhibitor cocktail (Sigma) on ice for 15 minutes. 350 μg of protein were used with SureBeads™ Protein A Magnetic Beads (BioRad) per manufacturer's instructions, using 10 μg antibody or corresponding normal IgG control (SCBT).

Drp1-MFF association = Drp1-MFF association by PLA in UM-SCC47 cells; assay type: cell-based
Experimental: (§3) FIGS. 9A-D. E2F5 enhances Drp1 translocation to mitochondria and association with MFF to induce HPV-E7/ceramide-dependent mitophagy. (A) Effects of stable knockdown of E2F5 using shRNA on DRP1-MFF association with/without C18-pyr-cer were measured by PLA using anti-DRP1 and anti-MFF antibodies compared to Scr-shRNA-transfected UM-SCC-47 controls. […] (B) HPV(−) UM-SCC1A cells transiently transfected with exogenous E2F5 or empty vector (vec) were used to measure the association between Drp1 and MFF in the absence/presence of ceramide stress by PLA using anti-DRP1 and anti-MFF antibodies. […] (C) Effects of shRNA-mediated E2F5 knockdown on Drp1 localization to mitochondria in the absence/presence of C18-pyr-cer were assessed in whole cell lysates (UM-SCC-47) versus mitochondria-enriched fractions using Western blotting. (D) Effects of transient reconstitution of E2F5^WT or E2F5^Δ84-177 proteins in UM-SCC47 cells, which were stably transfected with E2F5-shRNA, on Drp1 abundance, were measured by Western blotting using anti-Drp1 antibody, in whole cell lysates versus mitochondria-enriched fractions.
as §2

Drp1 [6] = experiment: Drp1 recruitment to mitochondria in HPV(+) UM-SCC-47 cells (Western blotting of mitochondria-enriched fractions); assay type: cell-based
Experimental: as §3
(§4) Immunoblotting. Cells were lysed in RIPA buffer plus protease inhibitor cocktail on ice for 15 minutes then centrifuged. 30ug of protein from the supernatant were run on Criterion™ TGX™ Precast Gels (Bio-Rad).
Cell fractionation. […]

UM-SCC-22A cells [7] = experiment: Mitophagy in UM-SCC-22A cells (live cell imaging, colocalization of LTG and MTR); assay type: cell-based
Experimental: Laser scanning confocal microscopy. For live cell imaging, cultured cells were incubated with 500 nM of mitotracker […] and 500 nM lysotracker green in DMSO for 30 min at 37° C. […] An Olympus FV10i confocal microscope was used for imaging. 543- and 488-nm channels were used for visualizing red or green fluorescence, respectively, with pinholes set to 1.0 Airy units. At least three random fields were imaged for each sample ([…] et al, 2012).

[8] = test system: UM-SCC-22A-derived xenograft tumors; experiment: HPV(−) UM-SCC-22A-derived xenograft tumor growth in SCID mice; assay type: in vivo; settings: UM-SCC-22A xenografts, 3.76 μg peptide, absence/presence of cisplatin 3.5 mg/kg every 3 days for 2 weeks
Experimental: To determine whether HPV(+) compared to HPV(−) HNSCC cells are more sensitive to stress-mediated growth inhibition in response to chemotherapeutic drugs, it was first established HPV(+) UM-SCC-47- and HPV(−) UM-SCC-22A-derived xenograft tumors in SCID mice. After the xenograft-derived tumors were ˜75-100 mm^3, the mice were treated with cisplatin (3.5 mg/kg) for two weeks, which is below its maximum tolerated doses (van Moorsel et al, 1999). Then, tumor volumes were measured at days 0 and 14 of treatment. […] After tumor growth measurements in the mice were taken, the tumors were surgically removed and the effects of cisplatin on CerS1-6 mRNA were measured by qRT-PCR.
Eight arginine residues (R8) were included on the N-terminus to enhance cell penetration of the E2F5 peptide (Rancher and Ryu, 2015).
(§5) In vivo studies. Severe combined immunodeficient (SCID) mice were purchased from Jackson Laboratories. Age- and sex-matched mice were used. All animal protocols were approved by the Institutional Animal Care and Use Committee at the Medical University of South Carolina. UM-SCC22A or UM-SCC47 cells (75,000) were implanted into the flanks of SCID mice (n=5-8 mice). When the tumors were palpable, the mice were treated every three days with 3.5 mg/kg cisplatin, 20 mg/kg C18-pyr-cer, or corresponding amount of vehicle control and/or 3.76 μg E2F5-peptide or scrambled control peptide. Tumor volume was measured using calipers. At the end of the 14-day treatment, the mice were euthanized and tumor tissues were collected (Sentelle et al, 2007; Saddoughi et al, 2013).

UM-SCC-22A cells [9] = test system: UM-SCC-22A cells
Experimental: Trypan blue exclusion assay. Cells were seeded in 6-well plates, and allowed to adhere for 20 h. After treatments (for 24 h), medium containing dead cells was pelleted with trypsinized cells, then re-suspended in 1× PBS then counted in a hemocytometer after addition of trypan blue dye (Sigma-Aldrich) at a 1:10 dilution.

Drp1 [10] = target: T1, Drp1 (Homo sapiens, UniProt O00429); experiment: Drp1 recruitment to mitochondria in HPV(−) UM-SCC-22A cells (Western blotting of mitochondria-enriched fractions); assay type: cell-based; settings: 5 uM peptide, 20 uM C18-pyr-cer, 1.5 hours
T1 construct: Western blotting using whole cell (UM-SCC-22A) lysates versus mitochondria-enriched fractions; endogenous in cells; host or cells: UM-SCC-22A
T1 sequence (O00429 whole entry): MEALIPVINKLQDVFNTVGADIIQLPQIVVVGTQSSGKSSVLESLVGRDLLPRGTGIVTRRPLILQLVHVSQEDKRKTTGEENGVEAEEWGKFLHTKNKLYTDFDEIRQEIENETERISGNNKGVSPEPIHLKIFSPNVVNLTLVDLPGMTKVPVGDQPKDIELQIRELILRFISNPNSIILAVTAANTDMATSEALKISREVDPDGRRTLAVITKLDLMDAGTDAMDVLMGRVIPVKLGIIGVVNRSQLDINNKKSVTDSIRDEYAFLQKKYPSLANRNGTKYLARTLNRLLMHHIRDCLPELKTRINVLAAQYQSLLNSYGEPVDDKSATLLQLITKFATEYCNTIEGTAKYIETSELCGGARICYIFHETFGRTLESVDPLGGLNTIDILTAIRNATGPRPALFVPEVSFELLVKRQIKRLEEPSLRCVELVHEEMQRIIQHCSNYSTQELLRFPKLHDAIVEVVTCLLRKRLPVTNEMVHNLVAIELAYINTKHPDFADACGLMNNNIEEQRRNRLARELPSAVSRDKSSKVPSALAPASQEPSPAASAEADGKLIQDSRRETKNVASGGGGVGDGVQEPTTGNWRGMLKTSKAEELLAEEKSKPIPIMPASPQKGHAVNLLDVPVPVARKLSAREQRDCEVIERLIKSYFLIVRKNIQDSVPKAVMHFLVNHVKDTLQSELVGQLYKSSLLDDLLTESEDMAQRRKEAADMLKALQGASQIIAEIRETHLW
Experimental: (§6) Images were quantified using FIJI.
as §4
Cell fractionation. Cells were treated with 40 uM cisplatin or vehicle for eight hours, 20 uM C18-pyr-cer or vehicle and/or 5 uM scr-pept or E2F5-pept for 1.5 hours. Mitochondria isolation kit (ThermoFisher Scientific) was used as described by the manufacturer.

[11] = test system: UM-SCC-22A xenograft-derived tumors; settings: peptide plus cisplatin versus Scr-pept with/without cisplatin
Text: Data are means±SD from three independent experiments. *p<0.05 as determined by Student's t test. […] Data are means±SD from three independent experiments. *p<0.05 as determined by Student's t test. […] Data are means±SD from three independent experiments. *p<0.05 as determined by Student's t test.
as §5

Drp1-E2F5 complex [12] = target: T2, Drp1-E2F5 complex (Homo sapiens, UniProt O00429); experiment: Drp1-E2F5 association by PLA in tumor tissue sections; assay type: in vivo, mice; settings: peptide plus cisplatin versus Scr-pept with/without cisplatin
T2 construct: from tissue; host or cells: UM-SCC-22A xenograft tumours grown in SCID mice
T2 sequence (O00429 whole entry, one chain of several): as the sequence (O00429 whole entry) above
Experimental: as §6, §2
In vivo studies. […] Age- and sex-matched mice were used. […] Tumor volume was measured using calipers.

Substance | IC50 (UM-SCC-22A cells [1]) | IC50 (UM-SCC-47 cells [2]; UM-SCC-47 (HPV+) cells, 48 h, read-out: IC50 (concentration that inhibited growth by 50%)) | sensitivity for drug-induced growth inhibition/cell death, UM-SCC-47 compared to UM-SCC-22A cells (UM-SCC-47 cells [2]; cells in culture) | number of mitochondria and autophagosomes by TEM (UM-SCC-47 cells [3]; HPV(+) UM-SCC-47 compared to HPV(−) UM-SCC-22A cells) | mitophagy detected by decreased oxygen consumption rate (UM-SCC-47 cells [3]; UM-SCC-47 cells, Sea Horse, versus vehicle) | Drp1 oligomerization and/or activation (Drp1 [4]) | Drp1-E2F5 association by PLA (Drp1-E2F5 complex [5]; versus controls) | Drp1-E2F5 association by co-immunoprecipitation (Drp1-E2F5 complex [5]; versus vehicle control) | Drp1-MFF association by PLA (Drp1-MFF association) | recruitment of Drp1 to mitochondria (Drp1 [6]) | lethal mitophagy in HPV(−) cells (UM-SCC-22A cells [7]; 5-10 μM, 24-48 h) | tumor growth [8] | C18-pyr-cer-induced cell death (UM-SCC-22A cells [9]; peptide plus C18-pyr-cer, compared to scr-pept) | cisplatin-induced cell death (UM-SCC-22A cells [9]; peptide plus cisplatin, compared to scr-pept) | peptide-enhanced cell death under shRNA-mediated Drp1 knockdown (UM-SCC-22A cells [9]; with/without C18-pyr-cer) | C18-pyr-cer-induced mitophagy (colocalization of LTG and MTR) (UM-SCC-22A cells [7]; peptide plus C18-pyr-cer) | ceramide-induced Drp1 recruitment to mitochondria (Drp1 [10]) | mitophagy in tumors (TEM) [11] | co-localization of Drp1 and E2F5 in tumors (PLA) (Drp1-E2F5 complex [12])
C18-pyridinium-ceramide [C18-pyr-cer] | 5 µM | 1.6 µM | ~3 fold | a decreased number mitochondria and an increased number of autophagosomes | increased mitophagy | Drp1 oligomerization and/or activation was observed | increased Drp1-E2F5 association | increased association between Drp1 and E2F5 | induced Drp1-MFF association | induced recruitment of Drp1 to mitochondria | induces lethal mitophagy |  |  |  |  |  |  |  | 
Biotin-RRRRRRRR-ELDQQKLWLQQSIKNVMDDSINNRFSYVTHED [E2F5-pept] |  |  |  |  |  |  |  |  |  |  |  | almost completely inhibited tumor growth | largely increased | largely increased | attenuated | enhanced C18-pyr-cer-induced mitophagy | enhanced ceramide-induced Drp1 recruitment to mitochondria | increased mitophagy | increased
